Results: patent publication US8476255B2, “Histone deacetylase inhibitors” (Orchid Chemicals & Pharmaceuticals Limited, priority 2007, dated 2013)

Legend:
[1] = system: NCIH460, HCT116 and U251 cells; assay: Anti-cancer screen, mean GI50 over cell lines; type: cell-based; settings: mean over cell lines; read-out: Cell growth inhibition Mean GI50
Description: (§1) Experimental drugs were screened for anti-cancer activity in three cell lines using five concentrations for each compound. The cell lines —HCT 116 (colon), NCIH460 (lung) and U251 (glioma) were maintained in DMEM containing 10% fetal bovine serum. 96-well microtiter plates are inoculated with cells in 100 μL of cell suspension (5×10^4 cells/mL) for 24 hours at 37° C., 5% CO2, 95% air and 100% relative humidity. A separate plate with these cell lines is also inoculated to determine cell viability before the addition of the compounds (T0).
(§2) Following 24-hours incubation, test compounds were added to the 96 well plates. Each plate contains one of the above cell lines and the following samples in triplicate: five different dilutions (0.01, 0.1, 1, 10 and 100 μM) of four test compounds, appropriate dilutions of a cytotoxic standard and growth medium (untreated) wells. Test compounds were dissolved in DMSO to prepare 20 mM stock solutions on the day of drug addition and serial dilutions were carried out in complete growth medium at 2× strength such that 100 μL added to wells gave final concentrations (0.01, 0.1, 1, 10 and 100 μM) in the well. SAHA was used as standard drug in these experiments.
(§3) For T0 measurement, 24 hours after seeding the cells, 20 μL of 3-(4,5-dimethyl-2-thiazolyl)-2,5-diphenyl-2H-tetrazolium (MTT) solution per well was added to the ‘T0’ plate and incubated for 3 hours at 37° C. in a CO2 incubator. The plate containing cells and test compounds was treated similarly after 48 hours of incubation. After 3 hours of MTT addition, well contents were aspirated carefully followed by addition of 150 μL DMSO per well. Plates were agitated to ensure dissolution of the formazan crystals in DMSO and absorbance was read at 570 nm (A570).
(§4) (Mosmann T. Rapid colorimetric assay for cellular growth and survival: application to proliferation and cytotoxicity assays. J Immunol Methods 1983; 65(1-2): 55-63; Anne Monks et al. Feasibility of high-flux anticancer drug screen using a diverse panel of cultured human tumor cell lines”. JNCI, Vol. 83, No. 11, 1991).

NCIH460 (lung) cells = assay: Anti-cancer screen (MTT), NCIH460; type: cell-based; settings: Homo sapiens, NCI-H460, NCIH460, 48 hours, MTT; for GI50: read-out: Cell growth inhibition NCIH460 (Lung) GI50; for LC50: read-out: Cell growth inhibition NCIH460 (Lung) LC50; for IC (TGI): read-out: Cell growth inhibition NCIH460 (Lung) TGI
Description: as §1, §2, §3, §4

[2] = system: HDAC (Mouse Liver Extract); assay: HDAC inhibition assay using Boc-Lys(Ac)-AMC substrate; type: biochemical; settings: mouse liver enzyme
Description: Inhibition of HDAC has been implicated to modulate transcription and to induce apoptosis or differentiation in cancer cells. The fluorometric assay provides a fast and fluorescence based method that eliminates radioactivity, extractions or chromatography, as used in traditional assays. The assay is based on two steps. First, the HDAC fluorometric substrate, which comprises an acetylated lysine side chain, is incubated with a sample containing HDAC activity (Mouse Liver Extract). Deacetylation of the substrate sensitizes the substrate, in the second step; treatment with the Trypsin stop solution produces a fluorophore that can be easily analyzed using fluorescence plate reader. Assay was done in 96-well black microplate and total volume of the assay was […]. […] The plate was pre-incubated at 37° C. for 5 minutes. […] The plate was incubated at 37° C. for 30 min. The reaction was stopped by adding 100 μL, of Trypsin stop solution and incubating at 37° C. for 15-30 min. Measuring the fluorescence at excitation wavelength of 360 nm and emission wavelength of 460 nm monitored the release of AMC. Buffer alone and substrate alone served as blank. […] (Dennis Wegener et al, Anal. Biochem, 321, 2003, 202-208).

HCT 116 (colon) cells = assay: Anti-cancer screen (MTT), HCT 116; type: cell-based; settings: Homo sapiens, HCT-116, HCT116, 48 hours, MTT; for GI50: read-out: Cell growth inhibition HCT116 (Colon) GI50; for CC50: read-out: Cell growth inhibition HCT116 (Colon) LC50; for IC (TGI): read-out: Cell growth inhibition HCT116 (Colon) TGI
Description: as §1, §2, §3, §4

Structure (SMILES) | GI50 [1] [µM] | GI50 (NCIH460 (lung) cells) [µM] | LC50 (NCIH460 (lung) cells) [µM] | IC (TGI) (NCIH460 (lung) cells) [µM] | HDAC inhibition % (1 μM) [2] [%] | HDAC inhibition % (10 μM) [2] [%] | GI50 (HCT 116 (colon) cells) [µM] | CC50 (HCT 116 (colon) cells) [µM] | IC (TGI) (HCT 116 (colon) cells) [µM] | IC50 [2] [µM]
Nc1ccccc1NC(=O)c1ccc(CNC(=O)/C(=C/c2ccc(F)c(C(F)(F)F)c2)c2ccc([N+](=O)[O-])cc2)cc1 [Compound 5, N-(2-Aminophenyl)-4-((3-(4-fluoro-3-trifluoromethylphenyl)-2-(4-nitrophenyl)acrylamido)methyl)benzamide] | 4.3 | 5.5 | > 100 | > 100 | 0.0 | −27.4 | 3.1 | > 100 | 11 | 
Nc1ccccc1NC(=O)c1ccc(CNC(=O)/C(=C/C2CC2)c2ccc(F)cc2)cc1 [Compound 14, N-(2-Aminophenyl)-4-((3-(cyclopropyl)-2-(4-fluorophenyl)acrylamido)methyl)benzamide] | 6.8 | 8 | 82 | 49 | 22.8 | 31.6 | 5.6 | 81 | 24 | 
Nc1ccccc1NC(=O)c1ccc(CNC(=O)/C(=C/c2ccncc2)c2ccc(F)cc2)cc1 [Compound 15, N-(2-Aminophenyl)-4-((3-(pyridin-4-yl)-2-(4-fluorophenyl)acrylamido)methyl)benzamide] | 5.8 | 8.8 | 95 | 60 | 42.7 | 56.9 | 2.7 | 94 | 30 | 3.8
COc1ccc(/C(=C\c2ccc(SC)cc2)C(=O)NCc2ccc(C(=O)Nc3ccccc3N)cc2)cc1 [Compound 16, N-(2-Aminophenyl)-4-((3-(4-methylthiophenyl)-2-(4-methoxyphenyl)acrylamido)methyl)benzamide] | 42.5 | 45 | > 100 | 97 | 30.7 | 46.0 | 40 | > 100 | 82 | 
COc1cc(/C=C(/C(=O)NCc2ccc(C(=O)Nc3ccccc3N)cc2)c2ccc(F)cc2)cc(OC)c1 [Compound 17, N-(2-Aminophenyl)-4-((3-(3,5-dimethoxyphenyl)-2-(4-fluorophenyl)acrylamido)methyl)benzamide] | 33.5 | 38 | > 100 | 80 | 25.7 | 20.3 | 29 | > 100 | 69 | 
Nc1ccccc1NC(=O)c1ccc(CNC(=O)/C(=C/c2ccnc3ccccc23)c2ccc(F)cc2)cc1 [Compound 22, N-(2-Aminophenyl)-4-((3-(quinolin-4-yl)-2-(4-fluorophenyl)acrylamido)methyl)benzamide] | 7.8 | 7.6 | > 100 | 80 | 32.9 | 56.1 | 7.9 | > 100 | 70 | 3.2
